BindingDB's records for doi:10.1124/jpet.301.2.661 (University of Arkansas, 2002)
Where “and” joins values, the source holds several entries; their conditions need not be identical. Equal entries are not always repeated. Square brackets hold non-standard residues; d marks the D form. Peptide text beside a SMILES is read from it. * marks the point of attachment. Tyr(Nα,Nα-allyl2) = C=CCN(CC=C)[C@@H](Cc1ccc(O)cc1)C(=O)*; Tic = O=C(O)[C@@H]1Cc2ccccc2CN1; Aib = CC(C)(N)C(=O)O

Target: Delta-type opioid receptor (Homo sapiens, UniProt P41143)
Sequence (P41143 whole entry): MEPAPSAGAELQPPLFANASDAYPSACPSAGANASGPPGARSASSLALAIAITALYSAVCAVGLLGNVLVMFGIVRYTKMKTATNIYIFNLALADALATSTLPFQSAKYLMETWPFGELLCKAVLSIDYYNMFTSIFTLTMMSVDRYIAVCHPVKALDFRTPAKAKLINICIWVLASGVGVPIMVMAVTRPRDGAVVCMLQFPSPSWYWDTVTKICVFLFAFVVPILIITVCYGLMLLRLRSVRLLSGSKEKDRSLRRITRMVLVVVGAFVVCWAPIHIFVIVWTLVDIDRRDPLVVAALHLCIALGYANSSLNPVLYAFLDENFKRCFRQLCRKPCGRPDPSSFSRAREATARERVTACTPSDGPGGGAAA

N[C@@H](Cc1ccc(O)cc1)C(=O)N1Cc2ccccc2C[C@H]1C(=O)N[C@@H](Cc1ccccc1)C(=O)N[C@@H](Cc1ccccc1)C(=O)O [TIPP] (H-Y[Tic]FF-OH)
Ki: 5.8 nM and 3.02 nM

C=CCN(CC=C)[C@@H](Cc1ccc(O)cc1)C(=O)NC(C)(C)C(=O)NC(C)(C)C(=O)N[C@@H](Cc1ccccc1)C(=O)N[C@@H](CC(C)C)C(=O)O [NSC_107691] ({Tyr(Nα,Nα-allyl2)}-[Aib][Aib]FL-OH)
Ki: 304 nM
